The compounds below were run against PRS (prolyl-tRNA synthetase) protein, PRS portion of EPRS (Homo sapiens (Human), UniProt P07814) (assay: PRS enzyme activity inhibition experiment ([3H]proline, liquid scintillation)). Conditions: purified PRS protein, 37° C. for 5 to 10 minutes.
Assay type: biochemical
In short: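 Values are % inhibition or IC50 ranges (A ≤100 nM, B 100–500 nM, C ≥500 nM) from [3H]proline incorporation measured by liquid scintillation. PRS portion of human EPRS, reacted 5–10 min at 37 °C in pH 7.4 phosphate buffer containing 5 mM ATP and tRNA, compound at 1 μM.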

Sequence of PRS (prolyl-tRNA synthetase) protein, PRS portion of EPRS (P07814 1007-1512): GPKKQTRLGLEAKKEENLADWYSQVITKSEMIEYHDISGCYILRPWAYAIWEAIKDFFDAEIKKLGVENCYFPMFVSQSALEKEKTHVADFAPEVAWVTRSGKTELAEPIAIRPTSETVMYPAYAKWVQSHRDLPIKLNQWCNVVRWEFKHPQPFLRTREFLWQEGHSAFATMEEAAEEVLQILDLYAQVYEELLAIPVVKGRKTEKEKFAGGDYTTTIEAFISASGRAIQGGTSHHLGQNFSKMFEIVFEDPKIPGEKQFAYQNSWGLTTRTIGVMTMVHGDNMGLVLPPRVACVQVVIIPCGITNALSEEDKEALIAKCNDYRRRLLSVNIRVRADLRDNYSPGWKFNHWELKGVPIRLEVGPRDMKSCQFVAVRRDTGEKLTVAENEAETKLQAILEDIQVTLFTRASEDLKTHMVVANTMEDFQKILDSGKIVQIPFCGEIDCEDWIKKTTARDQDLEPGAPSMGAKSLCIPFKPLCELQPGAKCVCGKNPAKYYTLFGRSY

`O=C(O)c1cn(C/C=C/[C@H]2NCCC[C@@H]2O)c2ccccc12` [Example 209, 1-((E)-3-((2R,3S)-3-hydroxypiperidin-2-yl)allyl)-1H-indole-3-carboxylic acid] and `COC(=O)c1cn(C/C=C/[C@H]2NCCC[C@@H]2O)c2ccc(Br)cc12` [Example 213, methyl 5-bromo-1-((E)-3-((2R,3S)-3-hydroxypiperidin-2-yl)allyl)-1H-indole-3-carboxylate] cannot be ordered by IC50: at least 500 nM for the first, at least 500 nM for the second.

`COC(=O)c1cn(C/C=C/[C@H]2NCCC[C@@H]2O)c2cccc(Cl)c12` [Example 210, methyl 4-chloro-1-((E)-3-((2R,3S)-3-hydroxypiperidin-2-yl)allyl)-1H-indole-3-carboxylate] and `COC(=O)c1cn(C/C=C/[C@H]2NCCC[C@@H]2O)c2c(Cl)cccc12` [Example 212, methyl 7-chloro-1-((E)-3-((2R,3S)-3-hydroxypiperidin-2-yl)allyl)-1H-indole-3-carboxylate] cannot be ordered by IC50: at least 500 nM for the first, at least 500 nM for the second.

`COC(=O)c1cn(C/C=C/[C@H]2NCCC[C@@H]2O)c2cc(Cl)ccc12` [Example 211, methyl 6-chloro-1-((E)-3-((2R,3S)-3-hydroxypiperidin-2-yl)allyl)-1H-indole-3-carboxylate] and `COC(=O)c1cn(C/C=C/[C@H]2NCCC[C@@H]2O)c2cc(Br)ccc12` [Example 214, methyl 6-bromo-1-((E)-3-((2R,3S)-3-hydroxypiperidin-2-yl)allyl)-1H-indole-3-carboxylate] cannot be ordered by IC50: at least 500 nM for the first, 100 to 500 nM for the second.

`CNC(=O)c1cn(C/C=C/[C@H]2NCCC[C@@H]2O)c2ccc(Br)cc12` [Example 215, 5-bromo-1-((E)-3-((2R,3S)-3-hydroxypiperidin-2-yl)allyl)-N-methyl-1H-indole-3-carboxamide] and `CN(C)C(=O)c1cn(C/C=C/[C@H]2NCCC[C@@H]2O)c2ccc(Br)cc12` [Example 216, 5-bromo-1-((E)-3-((2R,3S)-3-hydroxypiperidin-2-yl)allyl)-N,N-dimethyl-1H-indole-3-carboxamide] cannot be ordered by IC50: at least 500 nM for the first, at least 500 nM for the second.

`Cc1c(Cl)ccc2c1ncn2C/C(F)=C/[C@H]1NCCC[C@@H]1O` [Example 217, (2R,3S)-2-((Z)-3-(5-chloro-4-methyl-1H-benzo[d]imidazol-1-yl)-2-fluoroprop-1-enyl)piperidin-3-ol] and `Cc1c(Br)ccc2c1ncn2C/C(F)=C/[C@H]1NCCC[C@@H]1O` [Example 218, (2R,3S)-2-((Z)-3-(5-bromo-4-methyl-1H-benzo[d]imidazol-1-yl)-2-fluoroprop-1-en-1-yl)piperidin-3-ol] cannot be ordered by IC50: at least 500 nM for the first, at least 500 nM for the second.

`O[C@H]1CCCN[C@@H]1/C=C(\F)Cn1cnc2cc(Cl)c(Cl)cc21` [Example 219, (2R,3S)-2-((Z)-3-(5,6-dichloro-1H-benzo[d]imidazol-1-yl)-2-fluoroprop-1-en-1-yl)piperidin-3-ol] and `C/C(=C\[C@H]1NCCC[C@@H]1O)Cn1cnc2cc(Cl)c(Cl)cc21` [Example 223, (2R,3S)-2-((E)-3-(5,6-dichloro-1H-benzo[d]imidazol-1-yl)-2-methylprop-1-en-1-yl)piperidin-3-ol] cannot be ordered by IC50: at least 500 nM for the first, at least 500 nM for the second.

`OCc1nc2cc(Cl)c(Cl)cc2n1C/C(F)=C/[C@H]1NCCC[C@@H]1O` [Example 220, (2R,3S)-2-((Z)-3-(5,6-dichloro-2-(hydroxymethyl)-1H-benzo[d]imidazol-1-yl)-2-fluoroprop-1-en-1-yl)piperidin-3-ol] and `C/C(=C\[C@H]1NCCC[C@@H]1O)Cn1c(CO)nc2cc(Cl)c(Cl)cc21` [Example 224, (2R,3S)-2-((E)-3-(5,6-dichloro-2-(hydroxymethyl)-1H-benzo[d]imidazol-1-yl)-2-methylprop-1-en-1-yl)piperidin-3-ol] cannot be ordered by IC50: at least 500 nM for the first, at least 500 nM for the second.

`C/C(=C\[C@H]1NCCC[C@@H]1O)Cn1cnc2c(C)c(Cl)ccc21` [Example 221, (2R,3S)-2-((E)-3-(5-chloro-4-methyl-1H-benzo[d]imidazol-1-yl)-2-methylprop-1-en-1-yl)piperidin-3-ol] and `C/C(=C\[C@H]1NCCC[C@@H]1O)Cn1cnc2c(C)c(Br)ccc21` [Example 222, (2R,3S)-2-((E)-3-(5-bromo-4-methyl-1H-benzo[d]imidazol-1-yl)-2-methylprop-1-en-1-yl)piperidin-3-ol] cannot be ordered by IC50: at least 500 nM for the first, at least 500 nM for the second.

`O[C@H]1CCCN[C@@H]1C#CCn1cnc2cc(Cl)c(Cl)cc21` [Example 225, (2R,3S)-2-(3-(5,6-dichloro-1H-benzo[d]imidazol-1-yl)prop-1-yn-1-yl)piperidin-3-ol] and `O[C@H]1CCCN[C@@H]1C#CCn1cnc2cc(Br)c(Br)cc21` [Example 228, (2R,3S)-2-(3-(5,6-dibromo-1H-benzo[d]imidazol-1-yl)prop-1-yn-1-yl)piperidin-3-ol] cannot be ordered by IC50: at least 500 nM for the first, at least 500 nM for the second.

`Cc1c(Br)ccc2c1ncn2CC#C[C@H]1NCCC[C@@H]1O` [Example 226, (2R,3S)-2-(3-(5-bromo-4-methyl-1H-benzo[d]imidazol-1-yl)prop-1-yn-1-yl)piperidin-3-ol] and `Cc1c(Cl)ccc2c1ncn2CC#C[C@H]1NCCC[C@@H]1O` [Example 227, (2R,3S)-2-(3-(5-chloro-4-methyl-1H-benzo[d]imidazol-1-yl)prop-1-yn-1-yl)piperidin-3-ol] cannot be ordered by IC50: at least 500 nM for the first, at least 500 nM for the second.

`Cc1c(F)ccc2c1ncn2CC#C[C@H]1NCCC[C@@H]1O` [Example 229, (2R,3S)-2-(3-(5-fluoro-4-methyl-1H-benzo[d]imidazol-1-yl)prop-1-yn-1-yl)piperidin-3-ol] and `O[C@H]1CCN[C@@H]1/C=C/Cn1cnc2cc(Cl)c(Cl)cc21` [Example 230, (2R,3S)-2-((E)-3-(5,6-dichloro-1H-benzo[d]imidazol-1-yl)prop-1-en-1-yl)pyrrolidin-3-ol] cannot be ordered by IC50: at least 500 nM for the first, at least 500 nM for the second.

Source: patent publication US10981917B2, “Heterocyclic compound, its preparation method, and pharmaceutical composition comprising the same” (Daewoong Pharmaceutical Co., Ltd., priority 2017, dated 2021)
